Source: patent US20260325685A1, “Radiopharmaceutical Compositions Targeting Carbonic Anhydrase IX and Uses Thereof” (RayzeBio, Inc., priority 2023, published 2026)
Read-outs that look alike come from different tables or passages of the source.

Columns and labels:
human CA-IX = target: T1, human CA-IX (Homo sapiens, UniProt Q16790); experiment: Surface Plasmon Resonance (SPR) binding kinetics to recombinant human CA-IX (Biacore 8K, single-cycle kinetics, 1:1 binding model)
T1 construct: purchased Acro CA9-H82E3
Experimental: (§1) G1. Surface Plasmon Resonance Assay Conditions for hCA-IX and hCA-XII
(§2) Surface Plasmon Resonance (SPR) experiments were conducted on a Biacore 8K instrument (Cytiva, Marlborough, MA) to determine the binding kinetics of the compound to recombinant human CA-IX (Acro, CA9-H82E3) and CA-XII (Creative BioMart, CA12-261H) proteins. The ligands were diluted to 10 μg/mL in PBS-P+ buffer (20 mM phosphate buffer, pH 7.4, with 2.7 mM KCl, 137 mM NaCl, and 0.05% Tween 20) and captured on Series S Streptavidin Sensor Chips (Cytiva, 29699621) to 1200-1800 response units (RU) using a flow rate of 5 μL/min and injection times of 180 seconds for human CA-IX and 75 seconds for human CA-XII. Analyte binding was evaluated using a single-cycle kinetics method over 9 analyte concentrations (100-0.39 nM) in PBS-P+ buffer with 1% DMSO using a 50 μL/min. flow rate, 120 second association time, and 1200 second dissociation time. The flow cell temperature was set to 25° C. Analyte binding curves were fit to a 1:1 binding kinetic model in Biacore Insight Evaluation software (version 4.0.8.20368) following reference flow cell subtraction and DMSO correction to derive the association and dissociation binding constants.

human CA-XII = target: T2, human CA-XII (Homo sapiens, UniProt O43570); experiment: Surface Plasmon Resonance (SPR) binding kinetics to recombinant human CA-XII (Biacore 8K, single-cycle kinetics, 1:1 binding model)
T2 construct: purchased Creative BioMart CA12-261H
Experimental: as §1, §2

[1] = Chelated Metal: Lu-175; SPR, 25° C., pH 7.4; read-out: CAIX KD
[2] = Chelated Metal: Lu-175, 25° C., pH 7.4, read-out: CAXII KD
[3] = read-out: CAIX KD; Chelated Metal: Lu-175; SPR, 25° C., pH 7.4
[4] = read-out: CAXII KD, Chelated Metal: Lu-175, 25° C., pH 7.4

T2 sequence (O43570 25-354): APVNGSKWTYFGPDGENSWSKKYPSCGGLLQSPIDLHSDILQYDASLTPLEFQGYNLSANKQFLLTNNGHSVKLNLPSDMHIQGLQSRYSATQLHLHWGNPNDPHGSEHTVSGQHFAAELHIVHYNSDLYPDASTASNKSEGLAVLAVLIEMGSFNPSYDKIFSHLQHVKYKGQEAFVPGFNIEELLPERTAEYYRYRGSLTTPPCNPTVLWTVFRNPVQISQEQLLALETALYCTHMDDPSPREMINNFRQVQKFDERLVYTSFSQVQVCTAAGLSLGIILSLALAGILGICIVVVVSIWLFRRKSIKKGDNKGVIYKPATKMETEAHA

SMILES	Kd (human CA-IX; [1]) [nM]	Kd (human CA-XII; [2]) [nM]	Kd (human CA-IX; [3]) [nM]	Kd (human CA-XII; [4]) [nM]
CC(CCC(=O)N[C@@H](CC(=O)N[C@@H](CC(=O)N[C@@H](CCCCn1cc(C23CCC(C(=O)Nc4nnc(S(N)(=O)=O)s4)(CC2)CC3)nn1)C(=O)NCCOCCOCCNC(=O)CN1CCN(CC(=O)O)CCN(CC(=O)O)CCN(CC(=O)O)CC1)C(=O)O)C(=O)O)(c1ccc(O)cc1)c1ccc(O)cc1.[Lu+3] [Compound 100.6]	< 1	1 to 2.5	–	–
NS(=O)(=O)c1nnc(NC(=O)C23CCC(c4cn(CCNC(=O)[C@@H]5CN(C(=O)CN6CCN(CC(=O)O)CCN(CC(=O)O)CCN(CC(=O)O)CC6)CCN5C(=O)CC[C@H](NC(=O)C[C@H](NC(=O)c5ccc(S(F)(F)(F)(F)F)cc5)C(=O)O)C(=O)O)nn4)(CC2)CC3)s1.[Lu+3] [Compound 109.58]	< 1	< 1	–	–
CC(CCC(=O)N1CCC(C(=O)O)(C(=O)NCC(=O)N2CCN(C(=O)CN3CCN(CC(=O)O)CCN(CC(=O)O)CCN(CC(=O)O)CC3)C[C@@H]2C(=O)NCCn2cc(C34CC(C(=O)Nc5nnc(S(N)(=O)=O)s5)(C3)C4)nn2)CC1)(c1ccc(O)cc1)c1ccc(O)cc1.[Lu+3] [Compound 107.4]	1 to 2.5	> 10	–	–
NS(=O)(=O)c1nnc(NC(=O)C23CCC(c4cn(CCNC(=O)[C@@H]5CN(C(=O)CN6CCN(CC(=O)O)CCN(CC(=O)O)CCN(CC(=O)O)CC6)CCN5C(=O)CC[C@H](NC(=O)C[C@H](NC(=O)c5ccc(C6CCCCC6)cc5)C(=O)O)C(=O)O)nn4)(CC2)CC3)s1.[Lu+3] [Compound 109.55]	< 1	< 1	–	–
CC(CCCC(=O)N1CCC(C(N)=O)(C(=O)NCC(=O)NC2(C(=O)NCCn3cc(COc4ccc5nc(S(N)(=O)=O)sc5c4)nn3)CCN(C(=O)CC[C@H](C(=O)O)N3CCN(CC(=O)O)CCN(CC(=O)O)CCN(CC(=O)O)CC3)CC2)CC1)(c1ccc(O)cc1)c1ccc(O)cc1.[Lu+3] [Compound 127.9]	< 1	> 10	–	–
CC(CCC(=O)N[C@@H](CC(=O)N[C@@H](CC(=O)N1CCN(C(=O)CN2CCN(CC(=O)O)CCN(CC(=O)O)CCN(CC(=O)O)CC2)C[C@H]1C(=O)NCCn1cc(C23CC(C(=O)Nc4nnc(S(N)(=O)=O)s4)(C2)C3)nn1)C(=O)O)C(N)=O)(c1ccc(O)cc1)c1ccc(O)cc1.[Lu+3] [Compound 107.50]	< 1	> 10	–	–
NS(=O)(=O)c1nnc(NC(=O)C23CC(c4cn(CCNC(=O)[C@@H]5CN(C(=O)CN6CCN(CC(=O)O)CCN(CC(=O)O)CCN(CC(=O)O)CC6)CCN5C(=O)C[C@H](NC(=O)C[C@H](NC(=O)CCC56CCC(CC5)C6)C(=O)O)C(=O)O)nn4)(C2)C3)s1.[Lu+3] [Compound 109.9]	< 1	1 to 2.5	–	–
CC(CCC(=O)N1CCNC[C@H]1C(=O)N[C@@H](CC(=O)N1CCN(C(=O)CN2CCN(CC(=O)O)CCN(CC(=O)O)CCN(CC(=O)O)CC2)C[C@@H]1C(=O)NCCn1cc(C23CC(C(=O)Nc4nnc(S(N)(=O)=O)s4)(C2)C3)nn1)C(N)=O)(c1ccc(O)cc1)c1ccc(O)cc1.[Lu+3] [Compound 108.3]	2.5 to 10	> 10	–	–
CC(CCC(=O)N[C@@H](CC(=O)N[C@@H](CC(=O)N1CCN(C(=O)CN2CCN(CC(=O)O)CCN(CC(=O)O)CCN(CC(=O)O)CC2)C[C@H]1C(=O)NCCn1cc(C23CC(C(=O)Nc4nnc(S(N)(=O)=O)s4)(C2)C3)nn1)C(N)=O)C(N)=O)(c1ccc(O)cc1)c1ccc(O)cc1.[Lu+3] [Compound 107.47]	1 to 2.5	> 10	–	–
NS(=O)(=O)c1nnc(NC(=O)C23CC(c4cn(CCNC(=O)[C@@H]5CN(C(=O)CN6CCN(CC(=O)O)CCN(CC(=O)O)CCN(CC(=O)O)CC6)CCN5C(=O)CNC(=O)C5(C(=O)O)CCN(C(=O)CCCCc6ccc(I)cc6)CC5)nn4)(C2)C3)s1.[Lu+3] [Compound 112.19]	< 1	> 10	–	–
NS(=O)(=O)c1nnc(NC(=O)C23CC(c4cn(CCNC(=O)[C@@H]5CN(C(=O)CN6CCN(CC(=O)O)CCN(CC(=O)O)CCN(CC(=O)O)CC6)CCN5C(=O)C[C@H](Nc5ncc(C(=O)NCc6coc(C(F)(F)F)n6)cn5)C(=O)O)nn4)(C2)C3)s1.[Lu+3] [Compound 111.5]	2.5 to 10	> 10	–	–
Cc1cc(C(=O)Nc2nnc(S(N)(=O)=O)s2)ccc1-c1cn(CCNC(=O)C2(NC(=O)CNC(=O)C3(C(N)=O)CCN(C(=O)CCCC(C)(c4ccc(O)cc4)c4ccc(O)cc4)CC3)CCN(C(=O)CN3CCN(CC(=O)O)CCN(CC(=O)O)CCN(CC(=O)O)CC3)CC2)nn1.[Lu+3] [Compound 117.7]	< 1	> 10	–	–
NS(=O)(=O)c1nnc(NC(=O)C23CC(c4cn(CCNC(=O)[C@@H]5CN(C(=O)CN6CCN(CC(=O)O)CCN(CC(=O)O)CCN(CC(=O)O)CC6)CCN5C(=O)C[C@H](NC(=O)C[C@H](NC(=O)c5ccc(C6(C(F)(F)F)CC6)cn5)C(=O)O)C(=O)O)nn4)(C2)C3)s1.[Lu+3] [Compound 109.25]	< 1	2.5 to 10	–	–
NS(=O)(=O)c1nnc(NC(=O)C23CC(c4cn(C[C@H]5CN(C(=O)CN6CCN(CC(=O)O)CCN(CC(=O)O)CCN(CC(=O)O)CC6)CCN5C(=O)C[C@H](NC(=O)[C@@H]5COCCN5C(=O)Cc5n[nH]c6ccccc56)C(=O)O)nn4)(C2)C3)s1.[Lu+3] [Compound 114.1]	1 to 2.5	> 10	–	–
CC(CCC(=O)N[C@@H](CC(=O)N[C@@H](CC(=O)N[C@@H](CCCCn1cc([C@H]2CC[C@H](C(=O)Nc3nnc(S(N)(=O)=O)s3)CC2)nn1)C(=O)NCCOCCOCCNC(=O)CN1CCN(CC(=O)O)CCN(CC(=O)O)CCN(CC(=O)O)CC1)C(=O)O)C(=O)O)(c1ccc(O)cc1)c1ccc(O)cc1.[Lu+3] [Compound 100.4]	< 1	2.5 to 10	–	–
CC(CCC(=O)N[C@@H](CC(=O)N[C@@H](Cc1cn([C@@H](CCCCn2cc(C34CCC(C(=O)Nc5nnc(S(N)(=O)=O)s5)(CC3)CC4)nn2)C(=O)NCCOCCOCCNC(=O)CN2CCN(CC(=O)O)CCN(CC(=O)O)CCN(CC(=O)O)CC2)nn1)C(=O)O)C(=O)O)(c1ccc(O)cc1)c1ccc(O)cc1.[Lu+3] [Compound 101]	–	–	< 1	< 1
NS(=O)(=O)c1nnc(NC(=O)C23CC(c4cn(CCNC(=O)[C@@H]5CN(C(=O)CN6CCN(CC(=O)O)CCN(CC(=O)O)CCN(CC(=O)O)CC6)CCN5C(=O)C[C@H](NC(=O)C[C@H](NC(=O)c5n[nH]c6ccc(F)cc56)C(=O)O)C(=O)O)nn4)(C2)C3)s1.[Lu+3] [Compound 109.15]	< 1	2.5 to 10	–	–
CC(CCCC(=O)N1CCCC[C@H]1C(=O)N[C@@H](CC(=O)N1CCN(C(=O)CN2CCN(CC(=O)O)CCN(CC(=O)O)CCN(CC(=O)O)CC2)C[C@@H]1C(=O)NCCn1cc(C23CC(C(=O)Nc4nnc(S(N)(=O)=O)s4)(C2)C3)nn1)C(=O)O)(c1ccc(O)cc1)c1ccc(O)cc1.[Lu+3] [Compound 109.40]	< 1	> 10	–	–
NS(=O)(=O)c1nnc(NC(=O)C23CC(c4cn(CCNC(=O)[C@@H]5CN(C(=O)CN6CCN(CC(=O)O)CCN(CC(=O)O)CCN(CC(=O)O)CC6)CCN5C(=O)C[C@H](NC(=O)C[C@H](NC(=O)c5coc(C(F)(F)F)n5)C(=O)O)C(=O)O)nn4)(C2)C3)s1.[Lu+3] [Compound 109.17]	2.5 to 10	> 10	–	–
CC(CCCC(=O)N1CCC(C(=O)O)(C(=O)NCC(=O)NC2(C(=O)NCCn3cc(C45CC(C(=O)Nc6nnc(S(N)(=O)=O)s6)(C4)C5)nn3)CCN(C(=O)CN3CCN(CC(=O)O)CCN(CC(=O)O)CCN(CC(=O)O)CC3)CC2)CC1)(c1ccc(O)cc1)c1ccc(O)cc1.[Lu+3] (single isomer, unassigned) [Compound 117.4]	1 to 2.5	> 10	–	–
CC(CCC(=O)N[C@@H](CC(=O)N[C@@H](CC(=O)N1CCN(C(=O)OCCOCCNC(=O)CN2CCN(CC(=O)O)CCN(CC(=O)O)CCN(CC(=O)O)CC2)C[C@@H]1CCCCn1cc(CCCC(=O)Nc2nnc(S(N)(=O)=O)s2)nn1)C(=O)O)C(=O)O)(c1ccc(O)cc1)c1ccc(O)cc1.[Lu+3] [Compound 124]	–	–	2.5 to 10	2.5 to 10
NS(=O)(=O)c1nnc(NC(=O)C23CC(c4cn(CCNC(=O)[C@@H]5CN(C(=O)CN6CCN(CC(=O)O)CCN(CC(=O)O)CCN(CC(=O)O)CC6)CCN5C(=O)C[C@H](NC(=O)C[C@H](NC(=O)Cc5n[nH]c6ccc(O)cc56)C(=O)O)C(=O)O)nn4)(C2)C3)s1.[Lu+3] [Compound 109.32]	< 1	> 10	–	–
CC(CCCC(=O)N1CCC(C(N)=O)(C(=O)NCC(=O)NC2(C(=O)NCCn3cc(C45CC(C(=O)Nc6nnc(S(N)(=O)=O)s6)(C4)C5)nn3)CCN(C(=O)CN3CC4(C3)CN(C(=O)CN3CCN(CC(=O)O)CCN(CC(=O)O)CCN(CC(=O)O)CC3)C4)CC2)CC1)(c1ccc(O)cc1)c1ccc(O)cc1.[Lu+3] [Compound 129.7]	< 1	> 10	–	–
NS(=O)(=O)c1nnc(NC(=O)C23CCC(c4cn(CCNC(=O)[C@@H]5CN(C(=O)CN6CCN(CC(=O)O)CCN(CC(=O)O)CCN(CC(=O)O)CC6)CCN5C(=O)CNC(=O)C5(C(=O)O)CCN(C(=O)CCC6CCCCC6)CC5)nn4)(CC2)CC3)s1.[Lu+3] [Compound 107.10]	< 1	< 1	–	–
